Reference: US20240382596A1, “COMPOSITION OF VANCOMYCIN AQUEOUS SOLUTION” (HAINAN POLY PHARM. CO., LTD., priority 2021, published 2024)

Key:
[1] = Stability of vancomycin eye drops, HPLC relevant substances; type: physicochemical; settings: eye drops study, 0 day
Experimental: (§1) The embodiments are intended to facilitate understanding of the invention and should not be deemed as a limitation to the invention. • HPLC analysis conditions of the following embodiments were: • Chromatographic column: Welch Ultimate XB-C18 (250×4.6 mm, 5 μm) • Detection wavelength: 280 nm; • Column temperature: 30° C.; • Flow rate: 2.0 mL/min; • Injection volume: 20 μL; • Mobile phase: • Solution A: 4.0 mL of triethylamine was precisely measured, and water was added to bring the total volume to 2000 mL, and the pH of the solution was further adjusted to 3.20 with phosphoric acid; • Solution B: Acetonitrile-tetrahydrofuran-solution A=55−10−935, the pH was adjusted to 3.20 with phosphoric acid; • Solution C: acetonitrile-tetrahydrofuran-solution A=290−10−700, the pH was adjusted to 3.20 by phosphoric acid; • Elution gradient: […]
After being placed under accelerated conditions of 25° C./60% RH for 30 days, relevant substances were sampled and detected. The result is shown in Table 7, the percentage of impurities peak area is calculated by peak area normalization method.

[2] = PK test of vancomycin injection; type: in vivo; settings: SD rats following a single intrathecal dose; range over G1-G3
Experimental: Nine male SD rats were divided into three groups. […] Plasma samples were collected at 0.083, 0.167, 0.25, 0.5, 1, 2, 4, 6, 8, 12, and 24 h post-dosing in each group. The concentration of vancomycin in plasma samples was detected using an established LC-MS/MS method.

[3] = Stability of vancomycin injection, HPLC relevant substances; type: physicochemical; settings: injection study, 0 day
Experimental: as §1
After being placed under accelerated conditions of 25° C./60% RH for 30 days, relevant substances were sampled and detected.

Vancomycin hydrochloride
CDP-1 [1]: 0.32% | RS2 [1]: 0.53% | Vancomycin HCl [1]: 95.81% | elimination half-life (T½) [2]: 40.7 to 50.5 min | CDP-1 [3]: 0.32% | RS2 [3]: 0.55% | Vancomycin HCl [3]: 95.19%
